The values that follow come from patent US8030443B2, “Squamous cell carcinoma antigen-derived peptide binding to HLA-A24 molecule” (Kurume University, priority 2005, dated 2011).

Residues, ends and D or L forms follow the SMILES beside them.

The series relates to YES-2 (HLA-A24^+, SCCA^+) esophageal squamous cell carcinoma cells. Kind of series: 6-h 51Cr-release cytotoxicity assay of peptide-stimulated CTLs. The class given is cell-based, human. The source says:
Cultured cells in wells producing IFN-γ in response to a corresponding peptide were collected and further cultured with IL-2 alone for 10-14 days in order to obtain a sufficiently large number of cells to perform a standard 6-h ^51Cr-release assay. The following tumor cell lines were used as targets; YES-1 (HLA-A24^− and SCCA^+ esophageal squamous cell carcinoma), and YES-2 (HLA -A24^+ and SCCA^+ esophageal squamous cell carcinoma). Phytohemagglutinin (PHA)-stimulated blastoid T cells were also used as a negative control. In some experiments, 20 μg/ml of anti-HLA-class I (W6/32, IgG2a) (BioLegend, Camino Santa Fe, San Diego, Calif., USA), anti-HLA-class II (H-DR-1, IgG2a) (kindly provided by Dr. Yasuji NISHIMURA, KUMAMOTO UNIVERSITY, Japan), anti-CD4 (Nu-Th/i, IgG1) (established at Department of Immunology, Kurume University School of Medicine, Japan), or anti-CD8 (Nu-Ts/c, IgG2a) monoclonal antibody (mAb) (established at Department of Immunology, Kurume University School of Medicine, Japan) were added to the wells at the initiation of the assay. An anti-CD14 (JML-H14, IgG2a) mAb (established at Department of Immunology, Kurume University School of Medicine, Japan) was used as a negative control.

In the case of `CC(C)C[C@H](NC(=O)[C@H](CO)NC(=O)[C@H](C)NC(=O)[C@H](Cc1ccccc1)NC(=O)[C@H](Cc1c[nH]cn1)NC(=O)[C@H](Cc1ccccc1)NC(=O)[C@H](CO)NC(=O)[C@@H](NC(=O)[C@H](Cc1ccc(O)cc1)NC(=O)[C@@H](N)CCC(N)=O)[C@@H](C)O)C(=O)O` [SCCA 215, QYTSFHFASL] (H-QYTSFHFASL-OH), the “Cytotoxicity of peptide-stimulated CTLs against YES-2 cells” value is listed as “exhibited cytotoxicity against YES-2 cells in an HLA class I-restricted manner”.

With `CC(C)C[C@H](NC(=O)[C@H](Cc1ccc(O)cc1)NC(=O)[C@H](CCC(=O)O)NC(=O)[C@H](CCC(N)=O)NC(=O)[C@H](CC(C)C)NC(=O)[C@H](Cc1ccccc1)NC(=O)[C@H](CC(C)C)NC(=O)[C@H](Cc1ccc(O)cc1)NC(=O)[C@@H](N)[C@@H](C)O)C(=O)O` [SCCA 112, TYLFLQEYL] (H-TYLFLQEYL-OH), the “Cytotoxicity of peptide-stimulated CTLs against YES-2 cells” value is “exhibited cytotoxicity against YES-2 cells in an HLA class I-restricted manner”.

For `CC[C@H](C)[C@H](NC(=O)CNC(=O)[C@H](CC(C)C)NC(=O)[C@H](CC(C)C)NC(=O)[C@H](CCC(N)=O)NC(=O)[C@H](CCC(N)=O)NC(=O)[C@H](CCCNC(=N)N)NC(=O)[C@H](CC(C)C)NC(=O)[C@H](Cc1ccc(O)cc1)NC(=O)[C@@H](N)CCCNC(=N)N)C(=O)O` [HIV peptide, RYLRQQLLGI, reference compound] (H-RYLRQQLLGI-OH), the “Cytotoxicity of peptide-stimulated CTLs/PBMCs” value (SCC patients (Pts 2, 5, 7, 8), targets YES-2, YES-1, PHA-stimulated T-cell blasts (FIG. 4B)) is “did not show any cytotoxicity”.
